Test results reported in US20170119776A1, “CHIRAL 2,5-DISUBSTITUTED CYCLOPENTANECARBOXYLIC ACID DERIVATIVES AND USE THEREOF” (BAYER PHARMA AKTIENGESELLSCHAFT, priority 2014, published 2017).

What was measured:
Assay type in all cases: biochemical
MMP-2 of the mouse = molecular target: T1, MMP-2 of the mouse (Mus musculus, UniProt P33434); assay: In vitro MMP-2 inhibition test of the mouse
T1 construct: purchased R&D Systems 924-MP
Excerpt: (§1) The activity strength of the compounds according to the invention towards other MMPs (and therefore their selectivity) is likewise ascertained in in vitro inhibition tests. The MMP-mediated amidolytic cleavage of a suitable peptide substrate also leads here to a fluorescent light increase. The signal intensity of the fluorescent light is directly proportional to the enzyme activity. The active concentration of a test compound at which half of the enzyme is inhibited (50% signal intensity of the fluorescent light) is given as IC50 value.
(§2) Recombinant MMP-2 of the mouse (R&D Systems, 924-MP) is chemically activated in accordance with the manufacturer's instructions using APMA. 1 μl of the test compound to be analysed (as a solution in DMSO, suitable concentrations e.g. 1 nM to 30 μM) is pipetted into 24 μl of activated enzyme (final concentration e.g. 0.1 nM) in reaction buffer (50 mM Tris/HCl pH 7.5, 10 mM CaCl2, 150 mM NaCl, 0.05% Brij®-35) in a white 384-hole microtiter plate (MTP). The enzymatic reaction is started by adding the intramolecularly quenched substrate Mca-Pro-Leu-Gly-Leu-Dpa(Dnp)-Ala-Arg-NH2 (final concentration e.g. 10 μM; R&D Systems, ES-001), such that a total test volume of 50 μl results. The progress of the MMP-2 reaction is measured by measuring the fluorescence intensity (excitation 320 nm, emission 410 nm) over a suitable period (e.g. over 120 min at a temperature of 32° C.).
(§3) Tables 3A and 3B below give the IC50 values from these tests for the inhibition of rodent MMPs for representative embodiment examples of the present invention and also for two structurally related comparison compounds from the prior art (as racemate and separated enantiomer)→(in part as average values from several independent individual determinations and rounded to two significant places). The IC50 values were determined for racemates and enantiomers from differently generated DMSO stock solutions. Whereas an automatically created DMSO stock solution from the internal substance logistics was used for racemates by means of a standard method, in the case of enantiomers, in each case a freshly produced, manually prepared DMSO stock solution was used for a more precise direct comparison of the enantiomers with one another.

MMP-9 of the mouse = molecular target: T2, MMP-9 of the mouse (Mus musculus, UniProt P41245); assay: In vitro MMP-9 inhibition test of the mouse
T2 construct: purchased R&D Systems 909-MP
Excerpt: as §1
as §2, with “Recombinant MMP-9” for “Recombinant MMP-2”, “Systems, 909-MP)” for “Systems, 924-MP)”, “e.g. 5” for “e.g. 10”, “the MMP-9” for “the MMP-2”
as §3

MMP-10 = molecular target: T3, MMP-10 (Homo sapiens, UniProt P09238); assay: In vitro MMP-10 inhibition test
T3 construct: purchased R&D Systems 910-MP
Excerpt: as §1
(§4) Recombinant MMP-10 (R&D Systems, 910-MP) is chemically activated in accordance with the manufacturer's instructions using APMA. 1 μl of the test compound to be analysed (as a solution in DMSO, suitable concentrations e.g. 1 nM to 30 μM) is pipette into 24 μl of activated enzyme (final concentration e.g. 2 nM) in reaction buffer (50 mM Tris/HCl pH 7.5, 10 mM CaCl2, 150 mM NaCl, 0.05% Brij®-35) in a white 384-hole microtiter plate (MTP). The enzymatic reaction is started by adding the intramolecularly quenched substrate Mca-Arg-Pro-Lys-Pro-Val-Glu-Nval-Trp-Arg-Lys(Dnp)-NH2 (final concentration e.g. 10 μM; R&D Systems, ES-002), such that a total test volume of 50 μl results. The progress of the MMP-10 reaction is measured by measuring the fluorescence intensity (excitation 320 nm, emission 410 nm) over a suitable period (e.g. over 120 min at a temperature of 32° C.).
The IC50 values were determined for racemates and enantiomers from differently generated DMSO stock solutions. Whereas an automatically produced DMSO stock solution from the internal substance logistics was used for racemates by means of a standard method, in the case of enantiomers a freshly produced, manually prepared DMSO stock solution was used in each case for a more precise direct comparison of the enantiomers with one another.

MMP-3 of the mouse = molecular target: T4, MMP-3 of the mouse (Mus musculus, UniProt P28862); assay: In vitro MMP-3 inhibition test of the mouse
T4 construct: purchased R&D Systems 548-MP
Excerpt: as §1
as §4, with “Recombinant MMP-3 of the mouse” for “Recombinant MMP-10”, “Systems, 548-MP)” for “Systems, 910-MP)”, “is pipetted” for “is pipette”, “e.g. 0.5” for “e.g. 2”, “e.g. 5” for “e.g. 10”, “the MMP-3” for “the MMP-10”
as §3

T3 sequence (P09238 99-476): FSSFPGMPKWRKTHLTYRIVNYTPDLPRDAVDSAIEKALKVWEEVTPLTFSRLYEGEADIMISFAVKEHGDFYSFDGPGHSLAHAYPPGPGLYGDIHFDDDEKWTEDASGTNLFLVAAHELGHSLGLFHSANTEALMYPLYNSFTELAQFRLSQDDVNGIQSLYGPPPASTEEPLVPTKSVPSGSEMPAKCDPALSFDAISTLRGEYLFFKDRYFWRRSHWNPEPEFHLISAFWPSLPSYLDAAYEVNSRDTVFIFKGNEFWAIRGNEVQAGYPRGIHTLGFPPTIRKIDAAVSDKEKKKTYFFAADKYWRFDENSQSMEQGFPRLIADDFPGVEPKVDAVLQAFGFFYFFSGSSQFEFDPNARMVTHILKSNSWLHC
T2 sequence (P41245 108-730): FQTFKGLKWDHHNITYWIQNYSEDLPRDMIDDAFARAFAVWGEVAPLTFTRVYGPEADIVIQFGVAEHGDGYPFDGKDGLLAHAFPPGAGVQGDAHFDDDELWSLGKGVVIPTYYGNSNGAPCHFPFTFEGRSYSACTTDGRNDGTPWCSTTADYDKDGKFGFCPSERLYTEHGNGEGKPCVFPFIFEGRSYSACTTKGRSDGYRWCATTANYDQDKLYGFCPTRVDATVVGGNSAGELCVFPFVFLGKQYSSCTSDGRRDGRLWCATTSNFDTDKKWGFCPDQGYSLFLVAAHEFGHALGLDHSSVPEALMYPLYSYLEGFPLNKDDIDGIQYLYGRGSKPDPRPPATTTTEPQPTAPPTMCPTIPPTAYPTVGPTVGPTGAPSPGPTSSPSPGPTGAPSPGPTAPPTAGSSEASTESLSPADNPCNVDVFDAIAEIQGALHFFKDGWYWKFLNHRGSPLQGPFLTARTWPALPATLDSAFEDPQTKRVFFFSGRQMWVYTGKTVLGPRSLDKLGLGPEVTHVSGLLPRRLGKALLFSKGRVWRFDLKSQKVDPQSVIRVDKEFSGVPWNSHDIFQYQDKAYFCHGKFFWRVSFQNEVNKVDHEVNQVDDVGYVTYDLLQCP
T4 sequence (P28862 100-477): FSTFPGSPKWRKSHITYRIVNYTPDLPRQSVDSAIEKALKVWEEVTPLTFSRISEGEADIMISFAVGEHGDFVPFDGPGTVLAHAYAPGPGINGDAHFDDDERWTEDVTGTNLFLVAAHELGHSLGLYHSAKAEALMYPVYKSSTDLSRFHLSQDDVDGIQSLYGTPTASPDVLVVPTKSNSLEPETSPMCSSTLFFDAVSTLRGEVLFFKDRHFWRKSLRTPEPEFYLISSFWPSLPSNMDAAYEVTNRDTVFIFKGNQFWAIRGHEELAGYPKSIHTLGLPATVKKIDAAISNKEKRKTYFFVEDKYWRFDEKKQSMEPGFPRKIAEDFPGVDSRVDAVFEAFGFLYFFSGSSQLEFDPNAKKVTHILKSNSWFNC
T1 sequence (P33434 110-662): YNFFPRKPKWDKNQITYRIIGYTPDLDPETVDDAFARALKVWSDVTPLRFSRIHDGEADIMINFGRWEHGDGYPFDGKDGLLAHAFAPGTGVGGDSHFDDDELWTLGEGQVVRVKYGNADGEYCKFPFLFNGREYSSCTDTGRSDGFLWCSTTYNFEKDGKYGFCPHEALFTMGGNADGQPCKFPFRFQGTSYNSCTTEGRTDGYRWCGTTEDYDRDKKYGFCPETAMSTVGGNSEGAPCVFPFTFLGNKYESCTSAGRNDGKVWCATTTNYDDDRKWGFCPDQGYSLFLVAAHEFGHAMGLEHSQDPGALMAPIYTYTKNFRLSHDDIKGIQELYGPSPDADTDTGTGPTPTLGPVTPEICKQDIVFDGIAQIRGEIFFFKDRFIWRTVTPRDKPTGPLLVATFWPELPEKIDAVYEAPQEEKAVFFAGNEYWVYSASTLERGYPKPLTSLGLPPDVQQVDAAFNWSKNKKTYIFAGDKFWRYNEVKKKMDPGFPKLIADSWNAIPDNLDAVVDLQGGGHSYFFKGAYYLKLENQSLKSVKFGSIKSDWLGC

| IC50 (MMP-2 of the mouse) | IC50 (MMP-9 of the mouse) | IC50 (MMP-10) | IC50 (MMP-3 of the mouse) | SMILES |
| --- | --- | --- | --- | --- |
| 1.3 nM | 4.9 nM | 4.6 nM | 17 nM | O=C(O)[C@H]1[C@H](Cn2nnc3ccccc3c2=O)CC[C@@H]1C(=O)c1ccc(-c2ccc(Cl)cc2)cc1 (racemic) [Comparative Example A-1, (1RS,2RS,5SR)-2-[(4′-chlorobiphenyl-4-yl)carbonyl]-5-[(4-oxo-1,2,3-benzotriazin-3(4H)-yl)methyl]cyclopentanecarboxylic acid (racemate)] |
| 610 nM | 2700 nM | 5700 nM | 13000 nM | CCCCCOc1ccc(C(=O)CC(CCn2nnc3ccccc3c2=O)C(=O)O)cc1 (racemic) [Comparative Example B-1, (+/−)-4-Oxo-2-[2-(4-oxo-1,2,3-benzotriazin-3(4H)-yl)ethyl]-4-[4-(pentyloxy)phenyl]butanoic acid (racemate)] |
| 33 nM | 71 nM | 21 nM | 290 nM | O=C(O)[C@H]1[C@H](Cn2nnc3ccccc3c2=O)CC[C@@H]1C(=O)c1ccc(OCc2ccccc2)cc1 (racemic) [Example 1, (+/−)-(1RS,2RS,5SR)-2-[4-(Benzyloxy)benzoyl]-5-[(4-oxo-1,2,3-benzotriazin-3(4H)-yl)methyl]cyclopentanecarboxylic acid (racemate)] |
| 145 nM | 905 nM | 1900 nM | 6750 nM | CCCCCOc1ccc(C(=O)CC(CCn2nnc3ccccc3c2=O)C(=O)O)cc1 (single isomer, unassigned; enantiomer 1) [Comparative Example B-2, (+)-4-Oxo-2-[2-(4-oxo-1,2,3-benzotriazin-3(4H)-yl)ethyl]-4-[4-(pentyloxy)phenyl]butanoic acid (enantiomer 1)] |
| 16.5 nM | 27.5 nM | 17.5 nM | 87 nM | O=C(O)[C@H]1[C@H](Cn2nnc3ccccc3c2=O)CC[C@@H]1C(=O)c1ccc(OCc2ccccc2)cc1 [Example 2, (+)-(1S,2S,5R)-2-[4-(Benzyloxy)benzoyl]-5-[(4-oxo-1,2,3-benzotriazin-3(4H)-yl)methyl]cyclopentanecarboxylic acid] |
| < 0.61 nM | 1.5 nM | < 0.61 nM | 11.3 nM | O=C(O)[C@@H]1[C@@H](Cn2nnc3ccccc3c2=O)CC[C@H]1C(=O)c1ccc(-c2ccc(Cl)cc2)cc1 (single isomer, unassigned; enantiomer 2) [Comparative Example A-3, (1RS,2RS,5SR)-2-[(4′-Chlorobiphenyl-4-yl)carbonyl]-5-[(4-oxo-1,2,3-benzotriazin-3(4H)-yl)methyl]cyclopentanecarboxylic acid (enantiomer 2)] |
